Reference: ChEMBL document CHEMBL1201862, “PubChem BioAssay data set” (2004)
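A five-concentration, 48-hour dose response in 96-well plates underlies each endpoint, interpolated linearly between surrounding concentrations. Here, GI50 denotes the concentration required for 50% inhibition of growth.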 Activity calls are given as the source filed them. No stated cut-off is given here; in the data, active = GI50 up to about 1.1 µM and inactive = higher.

Columns and labels:
Assay in all cases: growth of human tumour cells (NCI), 48 h
[1] = test system: A549
[2] = test system: CAKI-1
[3] = test system: CCRF-CEM
[4] = test system: HL-60
[5] = test system: HOP-92
[6] = test system: K562
[7] = test system: NCI-H23
[8] = test system: OVCAR-3
[9] = test system: OVCAR-5
[10] = test system: OVCAR-8
[11] = test system: RPMI-8226
[12] = test system: RXF 393
[13] = test system: SK-MEL-2
[14] = test system: SNB-75
[15] = test system: UACC-257
[16] = test system: UO-31
[17] = test system: COLO 205
[18] = test system: NCI-H522

Measured: GI50

CSCSCC(CO)NC(=O)/C=C/c1c(C)nc(O)nc1O (stereo unspecified)
inactive: [1] > 100 µM | [2] 56.6 µM | [3] 44.4 µM | [4] > 100 µM | [5] > 100 µM | [6] 39.7 µM | [7] > 100 µM | [8] 26.4 µM | [9] > 100 µM | [10] > 100 µM | [11] > 100 µM | [12] > 100 µM | [13] 89.9 µM | [14] > 100 µM | [15] > 100 µM | [16] > 100 µM

CCOC1=NC(O)c2cccn2-c2sccc21 (stereo unspecified)
inactive: [1] 43.2 µM | [2] > 100 µM | [17] 7.73 µM | [5] > 100 µM | [6] 57.8 µM | [7] > 100 µM | [18] > 100 µM | [8] > 100 µM | [9] > 100 µM | [10] > 100 µM | [11] 26.7 µM | [12] > 100 µM | [13] > 100 µM | [16] > 100 µM

Cc1c(C(=O)NCCO)[n+]([O-])c2cc(Cl)ccc2[n+]1[O-]
inactive: [1] > 100 µM | [3] > 100 µM | [17] > 100 µM | [4] > 100 µM | [5] > 100 µM | [6] > 100 µM | [7] > 100 µM | [8] > 100 µM | [9] > 100 µM | [10] > 100 µM | [11] > 100 µM | [12] > 100 µM | [14] 48.5 µM | [15] > 100 µM | [16] > 100 µM

COC(=O)C(CCCC1(c2ccccc2)OCCO1)C(C)=O (stereo unspecified)
inactive: [1] > 100 µM | [3] > 100 µM | [17] > 100 µM | [4] > 100 µM | [6] 91.8 µM | [7] > 100 µM | [18] 64 µM | [8] > 100 µM | [9] > 100 µM | [10] > 100 µM | [12] > 100 µM | [13] > 100 µM | [14] 30.2 µM | [15] 90.2 µM | [16] > 100 µM

O=C(c1ccc(Cl)cc1)c1ccc(OCC(=O)N2CCN(c3ccccc3)CC2)cc1
inactive: [1] > 100 µM | [2] > 100 µM | [3] > 100 µM | [17] > 100 µM | [4] > 100 µM | [5] > 100 µM | [6] > 100 µM | [7] 53.7 µM | [8] > 100 µM | [9] > 100 µM | [10] > 100 µM | [11] > 100 µM | [12] > 100 µM | [13] > 100 µM | [14] > 100 µM | [15] 61 µM | [16] > 100 µM

CC1=NN=C(NCCN(C)C)C/C1=C/c1ccccc1Cl
inactive: [1] > 100 µM | [2] 73.5 µM | [17] > 100 µM | [7] > 100 µM | [8] > 100 µM | [9] 79.1 µM | [10] > 100 µM | [12] 95.1 µM | [13] > 100 µM | [14] 20 µM | [15] 23.5 µM | [16] > 100 µM

CCOC(=O)c1ncn2c1[nH]c(=O)c1ccccc12
inactive: [1] > 100 µM | [3] > 100 µM | [17] > 100 µM | [4] > 10 µM | [6] > 100 µM | [7] > 100 µM | [18] > 100 µM | [8] > 100 µM | [9] > 100 µM | [10] > 100 µM | [11] > 100 µM | [12] > 100 µM | [13] > 100 µM | [14] 11.9 µM | [16] > 100 µM

O=C1C=C(c2c(O)ccc3ccccc23)c2cc(O)ccc2C1=O
inactive: [1] 18.2 µM | [2] 19.5 µM | [17] 19.5 µM | [4] 2.02 µM | [5] 16.1 µM | [6] > 100 µM | [7] 15.1 µM | [8] 10.7 µM | [9] 21.1 µM | [10] 11.4 µM | [11] 4.47 µM | [12] 14.6 µM | [13] 20.1 µM | [14] 25.4 µM | [15] 17.9 µM | [16] 19.6 µM

CC(C(=O)n1c2ccccc2c2ccccc21)N(c1ccccc1)c1ccccc1 (stereo unspecified)
inactive: [1] 20.4 µM | [2] 14.5 µM | [3] 1.64 µM | [17] 17.4 µM | [4] 4.46 µM | [6] 16.9 µM | [7] 18.9 µM | [18] 2.75 µM | [8] 17.8 µM | [9] 18.4 µM | [10] 18.6 µM | [11] 16.3 µM | [12] 14.6 µM | [13] 15.1 µM | [14] 20.2 µM | [15] 17.9 µM | [16] 20.6 µM

CS/C(=N\C(=S)Nc1ccccc1)Nc1ccccc1
inactive: [1] 16.5 µM | [2] 14.6 µM | [17] 23.8 µM | [4] 10.6 µM | [6] 12.6 µM | [7] 29.4 µM | [18] 14.6 µM | [8] 21 µM | [9] 23.6 µM | [10] 25.4 µM | [11] 12.8 µM | [12] 15.2 µM | [13] 15.5 µM | [14] 16.3 µM | [15] > 10 µM | [16] 11.6 µM

Nc1nc(N)c(N=O)c(Nc2ccc(Br)cc2)n1
inactive: [1] 41.9 µM | [2] 29.4 µM | [3] 18.2 µM | [17] 19.9 µM | [4] > 100 µM | [5] 15.4 µM | [6] > 100 µM | [7] 23.4 µM | [18] 17.9 µM | [8] 13.1 µM | [9] 31.2 µM | [10] 27.2 µM | [13] 21.4 µM | [14] 10.4 µM | [15] 15.6 µM

COC(=O)C(CC(C)=O)CS(=O)(=O)CC(=O)C(=O)Nc1cccc([N+](=O)[O-])c1 (stereo unspecified)
inactive: [1] > 100 µM | [2] > 100 µM | [3] > 100 µM | [17] > 100 µM | [5] > 100 µM | [6] > 100 µM | [7] > 100 µM | [18] > 100 µM | [8] > 100 µM | [9] > 100 µM | [10] > 100 µM | [11] > 100 µM | [12] > 100 µM | [13] > 100 µM | [14] > 100 µM | [15] > 100 µM | [16] > 100 µM

O=C1OC(=O)C2C3CCC(O3)C12 (stereo unspecified)
inactive: [1] > 100 µM | [2] > 100 µM | [3] > 100 µM | [17] > 100 µM | [4] > 100 µM | [5] > 100 µM | [6] > 100 µM | [7] > 100 µM | [8] > 100 µM | [9] > 100 µM | [10] > 100 µM | [11] > 100 µM | [12] > 100 µM | [13] > 100 µM | [15] > 100 µM | [16] > 100 µM
